Measurements taken from the supplement of paper PMC10307832.

Experiments:
Test in all cases: relative viability (nuclei count vs DMSO), 5 days (fraction); higher = more cells survive
Decitabine + Tozasertib = compound: Nc1ncn([C@H]2C[C@H](O)[C@@H](CO)O2)c(=O)n1 [Decitabine] + Cc1cc(Nc2cc(N3CCN(C)CC3)nc(Sc3ccc(NC(=O)C4CC4)cc3)n2)n[nH]1 [Tozasertib] (partner 0.1 µM)
Method in brief: (§1)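 Nuclei were stained with Hoechst during a one-step fixation (final 0.05% Triton X-100, 1% formaldehyde, 1 ug/ml Hoechst) carried out 5 days after dosing, then counted on 4× images. The cells, lung cancer lines in 1536-well plates, had been dosed by pin tool the day after seeding with one drug alone or a fixed anchor-drug dose plus five library-drug doses (not always all listed) in √10 steps. Relative viability is the nuclei count in treated wells divided by that in vehicle wells, and each value is the median of duplicate plates.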

Halofuginone + Alpelisib = compound: O=C(C[C@H]1NCCC[C@@H]1O)Cn1cnc2cc(Br)c(Cl)cc2c1=O (racemic) [Halofuginone] + Cc1nc(NC(=O)N2CCC[C@H]2C(N)=O)sc1-c1ccnc(C(C)(C)C(F)(F)F)c1 [Alpelisib] (partner 2 µM)
Method in brief: as §1

[1] = compound: O=C(C[C@H]1NCCC[C@@H]1O)Cn1cnc2cc(Br)c(Cl)cc2c1=O (racemic) [Halofuginone] + CC(=O)Nc1cccc(-n2c(=O)n(C3CC3)c(=O)c3c(Nc4ccc(I)cc4F)n(C)c(=O)c(C)c32)c1 [Trametinib] (partner 0.02 µM)
Method in brief: as §1

[2] = compound: O=C(C[C@H]1NCCC[C@@H]1O)Cn1cnc2cc(Br)c(Cl)cc2c1=O (racemic) [Halofuginone] + CC1(C)CCC(c2ccc(Cl)cc2)=C(CN2CCN(c3ccc(C(=O)NS(=O)(=O)c4ccc(N[C@H](CCN5CCOCC5)CSc5ccccc5)c(S(=O)(=O)C(F)(F)F)c4)cc3)CC2)C1 [Navitoclax] (partner 0.5 µM)
Method in brief: as §1

Cell Line	relative viability (Decitabine + Tozasertib; first compound 0.04 µM)	relative viability (Decitabine + Tozasertib; first compound 0.1265 µM)	relative viability (Decitabine + Tozasertib; first compound 0.4 µM)	relative viability (Decitabine + Tozasertib; first compound 1.265 µM)	relative viability (Decitabine + Tozasertib; first compound 4 µM)	relative viability (Halofuginone + Alpelisib; first compound 0.001 µM)	relative viability (Halofuginone + Alpelisib; first compound 0.003162 µM)	relative viability (Halofuginone + Alpelisib; first compound 0.01 µM)	relative viability (Halofuginone + Alpelisib; first compound 0.03162 µM)	relative viability (Halofuginone + Alpelisib; first compound 0.1 µM)	relative viability ([1]; first compound 0.001 µM)	relative viability ([1]; first compound 0.003162 µM)	relative viability ([1]; first compound 0.01 µM)	relative viability ([1]; first compound 0.03162 µM)	relative viability ([1]; first compound 0.1 µM)	relative viability ([2]; first compound 0.001 µM)	relative viability ([2]; first compound 0.003162 µM)	relative viability ([2]; first compound 0.01 µM)	relative viability ([2]; first compound 0.03162 µM)	relative viability ([2]; first compound 0.1 µM)
NCI-H2170	0.447	0.472	0.347	0.298	0.217	0.863	0.846	0.799	0.681	0.656	0.856	0.852	0.954	0.948	0.868	0.631	0.724	0.595	0.699	0.387
NCI-H727	0.587	0.445	0.518	0.754	0.747	0.623	0.437	0.478	0.456	0.221	0.44	0.362	0.403	0.406	0.422	0.481	0.316	0.397	0.355	0.22
NCI-H838	0.196	0.236	0.188	0.191	0.176	1.05	0.961	1.05	0.566	0.111	0.504	0.518	0.468	0.38	0.191	1.17	1.24	0.994	0.954	0.208
H3255	–	0.633	0.524	0.506	0.431	0.664	0.619	0.558	0.683	0.606	0.746	0.73	0.543	0.716	0.517	0.541	0.481	0.548	0.495	0.553
EPLC-272H	–	0.307	0.0586	0.26	0.157	1.04	0.893	0.866	1.02	0.798	0.312	0.273	0.285	0.326	0.247	1.14	1.22	0.945	1.21	1.17
NCI-H647	0.262	0.192	0.172	0.0834	0.105	1.24	1.17	1.1	0.781	0.102	0.499	0.574	0.421	0.336	0.292	1.15	1.09	1.13	0.829	0.415
LXF-289	0.151	0.162	0.119	0.0869	0.0957	1.04	1.08	1.01	0.994	0.852	0.688	0.717	0.66	0.707	0.676	0.94	0.965	0.859	0.973	0.865
NCI-H1755	0.525	0.538	0.473	0.372	0.357	0.866	0.937	0.891	0.923	0.588	0.793	0.786	0.745	0.774	0.765	0.958	1.01	0.995	1.01	0.596
